Results as given in PubChem BioAssay (NCI).
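Results reflect a 48-hour exposure of cells in 96-well plates to compound at five concentrations. GI50: concentration for 50% inhibition of growth. TGI marks complete inhibition of growth.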

What was measured:
Test in all cases: DTP human tumour cell line panel, 48 h
CCRF-CEM leukemia = system: CCRF-CEM leukemia
MALME-3M melanoma = system: MALME-3M melanoma
SK-OV-3 ovarian = system: SK-OV-3 ovarian
TK-10 renal = system: TK-10 renal
DU-145 prostate = system: DU-145 prostate
NCI-H522 lung = system: NCI-H522 lung
A498 renal = system: A498 renal
OVCAR-4 ovarian = system: OVCAR-4 ovarian
HCT-15 colon = system: HCT-15 colon
HOP-62 NSCLC = system: HOP-62 NSCLC
NCI-H226 lung = system: NCI-H226 lung
SK-MEL-28 melanoma = system: SK-MEL-28 melanoma
NCI/ADR-RES ovarian = system: NCI/ADR-RES ovarian
HCC-2998 colon = system: HCC-2998 colon
OVCAR-8 ovarian = system: OVCAR-8 ovarian
SK-MEL-5 melanoma = system: SK-MEL-5 melanoma
MDA-MB-435 = system: MDA-MB-435
UACC-257 melanoma = system: UACC-257 melanoma
A549 NSCLC = system: A549 NSCLC
T-47D breast = system: T-47D breast
ACHN renal = system: ACHN renal
MDA-MB-231 breast = system: MDA-MB-231 breast
SW-620 colon = system: SW-620 colon
SF-268 CNS = system: SF-268 CNS
HT29 colon = system: HT29 colon
CAKI-1 renal = system: CAKI-1 renal
SNB-75 CNS = system: SNB-75 CNS
HOP-92 NSCLC = system: HOP-92 NSCLC
HCT-116 colon = system: HCT-116 colon
MOLT-4 leukemia = system: MOLT-4 leukemia
786-0 renal = system: 786-0 renal
SK-MEL-2 melanoma = system: SK-MEL-2 melanoma
UO-31 renal = system: UO-31 renal
HS 578T breast = system: HS 578T breast
PC-3 prostate = system: PC-3 prostate
EKVX NSCLC = system: EKVX NSCLC
NCI-H23 lung = system: NCI-H23 lung
OVCAR-3 ovarian = system: OVCAR-3 ovarian
SNB-19 CNS = system: SNB-19 CNS
HL-60(TB) leukemia = system: HL-60(TB) leukemia
BT-549 breast = system: BT-549 breast
SF-539 CNS = system: SF-539 CNS
OVCAR-5 ovarian = system: OVCAR-5 ovarian
RXF 393 renal = system: RXF 393 renal
KM12 colon = system: KM12 colon
U251 CNS = system: U251 CNS
SN12C renal = system: SN12C renal
MCF7 breast = system: MCF7 breast
RPMI-8226 leukemia = system: RPMI-8226 leukemia
IGROV1 ovarian = system: IGROV1 ovarian
UACC-62 melanoma = system: UACC-62 melanoma
COLO 205 colon = system: COLO 205 colon
M14 melanoma = system: M14 melanoma
K-562 leukemia = system: K-562 leukemia
SF-295 CNS = system: SF-295 CNS
LOX IMVI melanoma = system: LOX IMVI melanoma
NCI-H460 lung = system: NCI-H460 lung

`COC1C(CO)OC(n2c3ccccc3c3c4c(c5c6ccccc6[nH]c5c32)C(=O)NC4=O)C(OC(=O)C(N)CCCCN)C1O` (centres undefined) showed a GI50 (CCRF-CEM leukemia) of 0.0387 µM, a TGI (CCRF-CEM leukemia) of 2.83 µM and a GI50 (MALME-3M melanoma) of 0.0245 µM. For the same compound, the TGI (MALME-3M melanoma) was 0.157 µM, the GI50 (SK-OV-3 ovarian) was 0.225 µM and the TGI (SK-OV-3 ovarian) was 3.91 µM. The GI50 (TK-10 renal) was 0.371 µM, the TGI (TK-10 renal) was 1.46 µM and the GI50 (DU-145 prostate) was 0.168 µM. The TGI (DU-145 prostate) was 3.21 µM, the GI50 (NCI-H522 lung) was 0.0157 µM and the TGI (NCI-H522 lung) was 0.44 µM. It also gave a GI50 (A498 renal) of 0.005 µM, a TGI (A498 renal) of 0.23 µM and a GI50 (OVCAR-4 ovarian) of 0.593 µM. It also gave a TGI (OVCAR-4 ovarian) of 5.71 µM, a GI50 (HCT-15 colon) of 1.92 µM and a TGI (HCT-15 colon) of 9.53 µM. The GI50 (HOP-62 NSCLC) was 0.144 µM, the TGI (HOP-62 NSCLC) was 2.4 µM and the GI50 (NCI-H226 lung) was 0.0371 µM. The TGI (NCI-H226 lung) was 0.291 µM, the GI50 (SK-MEL-28 melanoma) was 0.165 µM and the TGI (SK-MEL-28 melanoma) was 2.26 µM. It also gave a GI50 (NCI/ADR-RES ovarian) of 1.4 µM, a TGI (NCI/ADR-RES ovarian) of 21.9 µM and a GI50 (HCC-2998 colon) of 0.173 µM. The TGI (HCC-2998 colon) was 1.5 µM, the GI50 (OVCAR-8 ovarian) was 0.119 µM and the TGI (OVCAR-8 ovarian) was 6.97 µM. It also gave a GI50 (SK-MEL-5 melanoma) of 0.0426 µM, a TGI (SK-MEL-5 melanoma) of 0.125 µM and a GI50 (MDA-MB-435) of 0.123 µM. For the same compound, the TGI (MDA-MB-435) was 1.43 µM, the GI50 (UACC-257 melanoma) was 0.437 µM and the TGI (UACC-257 melanoma) was 5.3 µM. For the same compound, the GI50 (A549 NSCLC) was 0.962 µM, the TGI (A549 NSCLC) was 9.04 µM and the GI50 (T-47D breast) was 0.0145 µM. The TGI (T-47D breast) was 0.187 µM, the GI50 (ACHN renal) was 0.0226 µM and the TGI (ACHN renal) was 0.169 µM. For the same compound, the GI50 (MDA-MB-231 breast) was 0.0504 µM, the TGI (MDA-MB-231 breast) was 1.01 µM and the GI50 (SW-620 colon) was 0.0108 µM. It also gave a TGI (SW-620 colon) of 1.67 µM, a GI50 (SF-268 CNS) of 0.0232 µM and a TGI (SF-268 CNS) of 0.721 µM. For the same compound, the GI50 (HT29 colon) was 0.357 µM, the TGI (HT29 colon) was 12.9 µM and the GI50 (CAKI-1 renal) was 0.0232 µM. It also gave a TGI (CAKI-1 renal) of 0.0655 µM, a GI50 (SNB-75 CNS) of 0.156 µM and a TGI (SNB-75 CNS) of 3.66 µM. The GI50 (HOP-92 NSCLC) was 0.0353 µM, the TGI (HOP-92 NSCLC) was 0.735 µM and the GI50 (HCT-116 colon) was 0.0834 µM. The TGI (HCT-116 colon) was 50 µM, the GI50 (MOLT-4 leukemia) was 0.056 µM and the TGI (MOLT-4 leukemia) was 13.3 µM. The GI50 (786-0 renal) was 0.111 µM, the TGI (786-0 renal) was 3.3 µM and the GI50 (SK-MEL-2 melanoma) was 0.505 µM. The TGI (SK-MEL-2 melanoma) was 1.71 µM, the GI50 (UO-31 renal) was 0.215 µM and the TGI (UO-31 renal) was 0.903 µM. For the same compound, the GI50 (HS 578T breast) was 0.299 µM, the TGI (HS 578T breast) was 2.26 µM and the GI50 (PC-3 prostate) was 0.116 µM. For the same compound, the TGI (PC-3 prostate) was 2.58 µM, the GI50 (EKVX NSCLC) was 0.592 µM and the TGI (EKVX NSCLC) was 3.15 µM. It also gave a GI50 (NCI-H23 lung) of 0.2 µM, a TGI (NCI-H23 lung) of 1.53 µM and a GI50 (OVCAR-3 ovarian) of 0.144 µM. For the same compound, the TGI (OVCAR-3 ovarian) was 1.16 µM, the GI50 (SNB-19 CNS) was 0.0889 µM and the TGI (SNB-19 CNS) was 14.2 µM. For the same compound, the GI50 (HL-60(TB) leukemia) was 0.00592 µM, the TGI (HL-60(TB) leukemia) was 0.0597 µM and the GI50 (BT-549 breast) was 0.165 µM. It also gave a TGI (BT-549 breast) of 2.48 µM, a GI50 (SF-539 CNS) of 0.0173 µM and a TGI (SF-539 CNS) of 0.139 µM. It also gave a GI50 (OVCAR-5 ovarian) of 0.386 µM, a TGI (OVCAR-5 ovarian) of 2.8 µM and a GI50 (RXF 393 renal) of 0.0537 µM. The TGI (RXF 393 renal) was 0.815 µM, the GI50 (KM12 colon) was 0.0529 µM and the TGI (KM12 colon) was 0.599 µM. It also gave a GI50 (U251 CNS) of 0.0128 µM, a TGI (U251 CNS) of 0.311 µM and a GI50 (SN12C renal) of 0.0237 µM. The TGI (SN12C renal) was 0.0562 µM, the GI50 (MCF7 breast) was 0.0796 µM and the TGI (MCF7 breast) was 5.45 µM. The GI50 (RPMI-8226 leukemia) was 1.33 µM, the TGI (RPMI-8226 leukemia) was 11.6 µM and the GI50 (IGROV1 ovarian) was 0.102 µM. It also gave a TGI (IGROV1 ovarian) of 2.93 µM, a GI50 (UACC-62 melanoma) of 0.0281 µM and a TGI (UACC-62 melanoma) of 0.185 µM. The GI50 (COLO 205 colon) was 0.0963 µM, the TGI (COLO 205 colon) was 5.67 µM and the GI50 (M14 melanoma) was 0.132 µM. For the same compound, the TGI (M14 melanoma) was 3.23 µM, the GI50 (K-562 leukemia) was 0.0308 µM and the TGI (K-562 leukemia) was 8.99 µM. The GI50 (SF-295 CNS) was 0.165 µM, the TGI (SF-295 CNS) was 1.95 µM and the GI50 (LOX IMVI melanoma) was 0.005 µM. The TGI (LOX IMVI melanoma) was 0.0351 µM, the GI50 (NCI-H460 lung) was 1.06 µM and the TGI (NCI-H460 lung) was 3.78 µM.
